# Reference: patent publication US11565264B2, “Expandable arrays and methods of use” (Rutgers, The State University of New Jersey, priority 2018, dated 2023)
# Tests used:
# GBM PDOs = assay: 72-hour drug treatment of GBM patient derived organoids (PDOs) in basket arrays; type: cell-based; details: 72-hour treatment
# Procedure: The basket arrays were used to deploy rapid single cell derived sphere and organoid assays to assess tumor cell viability, tumor invasion, terminal differentiation and resistance to therapy for cancer drug discovery and drug validation. […] PDOs were treated for 72-hours with standard chemotherapy (TMZ) and/or molecularly targeted agents, targeting mTOR, PI3K, BMI1, EGFR, and DDR, among others. Following treatments, the entire 4D printed basket arrays were evolved, with a 10-min heating step at 50° C., to their programmable cassette size to directly perform histological and IHC validation on the same day, and with the convenience of maintaining the same tissue plate arrangement. The concentrations inhibiting viability by 50% (GI50), real time activated caspase 3 for detection of apoptotic cells and GBM tumor cell invasion in live intact organoid cells were less impacted by standard TMZ than targeted therapies.
# U87 spheres = details: read-out: EC50 (median dose); GBM cell viability
# From the text: FIG. 15A illustrates the results of the cell titer glo assay that utilizes ATP levels and was used to determine GBM viability in the presence of component biomaterials. FIGS. 15B and 15C are low-power images of bright fields of spheres cultured for one week in the presence of the indicated chemicals and concentrations. The insets are higher power (20×) magnification of the 5× images.
# [1] = live intact organoid cells, TMZ compared with targeted therapies
Compound,EGFR expression in organoid cells (GBM PDOs),GBM tumor cell invasion (GBM PDOs; [1]),concentrations inhibiting viability by 50% (GI50) (GBM PDOs; [1]),real time activated caspase 3 for detection of apoptotic cells (GBM PDOs; [1]),EC50 (U87 spheres)
Cn1nnc2c(C(N)=O)ncn2c1=O [TMZ],not affected,less impacted,less impacted,less impacted,–
poly (Ethylene glycol) diacrylate 250 [PEGDA250],–,–,–,–,7.2 µM
